Target: Bifunctional protein GlmU (Escherichia coli (strain K12), UniProt P0ACC7)
Test: Inhibition of Escherichia coli GlmU acetyltransferase activity assessed as coenzyme A production using acetyl CoA substrate

Chain of Bifunctional protein GlmU (P0ACC7 whole entry): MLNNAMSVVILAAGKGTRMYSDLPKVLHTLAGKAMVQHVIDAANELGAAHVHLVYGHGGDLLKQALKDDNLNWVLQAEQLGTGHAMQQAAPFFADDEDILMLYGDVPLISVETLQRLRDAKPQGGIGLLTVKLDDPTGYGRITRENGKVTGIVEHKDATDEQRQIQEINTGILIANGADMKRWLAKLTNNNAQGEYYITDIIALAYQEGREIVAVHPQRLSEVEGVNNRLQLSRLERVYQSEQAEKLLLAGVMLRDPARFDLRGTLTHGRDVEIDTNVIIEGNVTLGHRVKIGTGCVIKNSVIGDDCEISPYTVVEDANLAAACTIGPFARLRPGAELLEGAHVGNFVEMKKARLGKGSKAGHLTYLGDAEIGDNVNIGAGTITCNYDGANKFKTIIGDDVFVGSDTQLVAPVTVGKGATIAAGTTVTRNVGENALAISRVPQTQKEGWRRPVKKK

Compound | IC50
COc1cc(OC)c(S(=O)(=O)N(c2ccccc2)c2ccc(N)cc2)cc1NC(=O)CCC(=O)O | 20 nM
COc1cc(OC)c(S(=O)(=O)N2c3ccccc3CC[C@@H]2C)cc1NC(=O)[C@@H]1[C@@H](C)[C@H]1C(=O)O | 400 nM
COc1cc(OC)c(S(=O)(=O)N2c3ccccc3CC[C@@H]2C)cc1NC(=O)Cc1ccnc(C#N)c1 | 680 nM
COc1cc(OC)c(S(=O)(=O)N2c3ccccc3CC[C@H]2C)cc1NC(=S)NCC(=O)O | 500 nM
COc1cc(OC)c(S(=O)(=O)N(c2ccc(C)cc2)c2ccc(C)cc2)cc1NC(=O)CCC(=O)O | 40 nM
COc1cc(OC)c(S(=O)(=O)NCc2ccccc2-c2ccc(C(=O)O)cc2)cc1NC(=O)CCC(=O)O | 900 nM
COc1cc(OC)c(S(=O)(=O)Nc2ccccc2)cc1NC(C)=O | 20000 nM
COc1cc(OC)c(S(=O)(=O)N2c3ccccc3CC[C@H]2C)cc1NC(=O)CSCC(=O)O | 100 nM
COc1cc(OC)c(S(=O)(=O)N2c3ccccc3CC[C@@H]2C)cc1NC(=O)Cc1ccnc(F)c1 | 800 nM

From ChEMBL document CHEMBL3414535, “Identification and optimization of Escherichia coli GlmU inhibitors: an in silico approach with validation thereof” (Eur J Med Chem, 2015)
